The source of these data is publication PMC5733478, “A Non-imaging High Throughput Approach to Chemical Library Screening at the Unmodified Adenosine-A3 Receptor in Living Cells” (Frontiers in Pharmacology, 2017).

Structures can show the parent of a compound that is named as a salt. Where two headings read alike, the source gives them in different places.

This assay has as its target T1, human A3AR (Homo sapiens, UniProt P0DMS8).
T1 construct: expressed in transfected cells
T1 sequence (P0DMS8 1-318): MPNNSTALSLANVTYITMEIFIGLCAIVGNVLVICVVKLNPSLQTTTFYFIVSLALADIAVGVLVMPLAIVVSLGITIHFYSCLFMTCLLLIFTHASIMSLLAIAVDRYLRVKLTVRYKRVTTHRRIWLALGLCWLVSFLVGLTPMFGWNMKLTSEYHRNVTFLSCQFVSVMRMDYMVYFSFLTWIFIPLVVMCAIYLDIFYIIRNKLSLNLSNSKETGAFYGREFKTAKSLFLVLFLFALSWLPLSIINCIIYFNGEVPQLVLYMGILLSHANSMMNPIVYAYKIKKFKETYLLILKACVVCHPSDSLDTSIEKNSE
The assay can be described thus: LOPAC library primary screen: single concentration (10 μM) inhibition of 25 nM CA200645 binding, PHERAstar FS.

The mark [1] stands for this setting: compounds tested at 10 µM, % of control wells (1% DMSO and 25 nM CA200645), whole live cells expressing the A3AR, mean ± SD, three experiments in duplicate.

For the molecule `CN[C@@H]1C[C@@H](c2ccc(Cl)c(Cl)c2)c2ccccc21` [Indatraline hydrochloride], the “% 25 nM CA200645 binding” value is on record as 103.0 ± 8.6%. The same measure, in the same setting: in the case of `O=c1c(O)c(-c2cc(O)c(O)c(O)c2)oc2cc(O)cc(O)c12` [Myricetin] it was 62.7 ± 9.0%.

For the molecule `O=C(CCSCc1ccco1)NNC(=O)N1Cc2ccccc2Oc2ccc(Cl)cc21` [SC-51322], the “% 25 nM CA200645 binding” value came out at 86.9 ± 5.7%. Same read-out and setting: the same measure for `O.O=c1cc(-c2ccccc2)oc2c(O)c(O)ccc12` [7,8-Dihydroxyflavone hydrate]: 68.2 ± 13.0%; for `CCN1/C(=C/C(C)=O)Sc2ccc(OC)cc21` [TG003]: 77.3 ± 17.0%. With `c1ccc2c(c1)CCCC2C1=NCCN1` (centres unmarked) [Tetrahydrozoline hydrochloride], the “% 25 nM CA200645 binding” value was determined as 98.2 ± 6.4%.

Take `O=c1nc2[nH]c3ccccc3nc-2c(=O)[nH]1` [alloxazine, reference compound]: the “% 25 nM CA200645 binding” value is recorded as 89.0 ± 4.9%. The “hit in LOPAC primary screen (inhibited the binding of CA200645 by >40%)” value (10 μM compound, 25 nM CA200645, A3AR CHO cells) is listed as “not identified as hits”.

For the molecule `CC(=O)O[C@H]1C[C@@]2(C)[C@@H](C[C@@H](O)[C@H]3[C@@]4(C)CC[C@@H](O)[C@@H](C)[C@@H]4CC[C@@]32C)/C1=C(\CCC=C(C)C)C(=O)[O-].[Na+]` [Fusidic acid sodium], the “% 25 nM CA200645 binding” value was 93.0 ± 9.1%. Still for that read-out and setting: in the case of `Cl.Nc1c2c(nc3ccccc13)CCCC2` it was 100.2 ± 15.6%; in that of `NC(=O)CI` [Iodoacetamide], 101.9 ± 8.2%. Regarding `CN1[C@@H](CC(=O)c2ccccc2)CCC[C@H]1C[C@H](O)c1ccccc1.Cl` [alpha-Lobeline hydrochloride], the “% 25 nM CA200645 binding” value was determined as 90.3 ± 6.6%. Same read-out and setting: the same measure for `CCOC(=O)[N-]c1cn(N2CCOCC2)n[o+]1` [Molsidomine]: 91.8 ± 17.4%; for `CN(C)CCCN1c2ccccc2CCc2ccc(Cl)cc21` [Clomipramine hydrochloride]: 99.4 ± 3.8%; for `Clc1ccc(N2CCN(Cc3cc4ccccn4n3)CC2)cc1` [FAUC 213]: 76.8 ± 3.4%.

As to `C[N+](C)(C)CCOC(=O)CCC(=O)OCC[N+](C)(C)C` [Succinylcholine chloride], the “% 25 nM CA200645 binding” value is listed as 98.6 ± 15.7%. With `Nc1ccc(S(=O)(=O)Nc2ccnn2-c2ccccc2)cc1` [Sulfaphenazole], the “% 25 nM CA200645 binding” value under setting [1] was 89.1 ± 34.9%.

As to `Nc1nc2c(ncn2[C@@H]2O[C@H](CO)[C@@H](O)[C@@H]2O)c(=O)[nH]1.O` [Ara-G hydrate], the “% 25 nM CA200645 binding” value is reported as 96.8 ± 6.9%. For the molecule `CCN1CCC[C@H]1CNC(=O)c1cc(S(N)(=O)=O)ccc1OC` [(-)-Sulpiride], the “% 25 nM CA200645 binding” value came out at 103.0 ± 8.9%.

Consider `OCC(CO)(CBr)CBr` [BBMP], for which the “% 25 nM CA200645 binding” value is 93.9 ± 9.9%.

As for `Brc1ccc([C@H]2CN3CCSC3=N2)cc1.O=C(O)C(=O)O` [S(-)-p-Bromotetramisole oxalate], the “% 25 nM CA200645 binding” value turned out to be 68.6 ± 44.8%. Regarding `c1ccc2c(c1)OCC(C1=NCCN1)O2` (centres unmarked) [Idazoxan hydrochloride], under setting [1], the “% 25 nM CA200645 binding” value was 112.7 ± 7.0%.

On to `CC[C@@H](CO)NC(=O)[C@@H]1C=C2c3cccc4c3c(cn4C)C[C@H]2N(C)C1` [Methysergide maleate], for which the “% 25 nM CA200645 binding” value is recorded as 92.3 ± 21.2%.

For the molecule `CC[C@H](C)C(=O)O[C@H]1CCC=C2C=C[C@H](C)[C@H](CC[C@@H]3C[C@@H](O)CC(=O)O3)[C@H]21` [Mevastatin], the “% 25 nM CA200645 binding” value under setting [1] is given as 107.1 ± 10.0%.

Take `CCOC(=O)Nc1ccc(NCc2ccc(F)cc2)nc1N` [Flupirtine maleate]: the “% 25 nM CA200645 binding” value is 75.3 ± 9.1%. `COc1cc(/C=C(\C#N)C(=O)Nc2nnc(C(F)(F)F)s2)ccc1OCc1ccc(C(F)(F)F)cc1C(F)(F)F` [XCT790]: the “% 25 nM CA200645 binding” value is recorded as 87.7 ± 9.0%. Take `COc1ccc2c(c1OC)C(=O)O[C@@H]2[C@H]1c2c(cc3c(c2OC)OCO3)CCN1C.Cl` [Noscapine hydrchloride]: the “% 25 nM CA200645 binding” value was found to be 114.6 ± 20.4%. For the molecule Ro 8-4304, the “% 25 nM CA200645 binding” value came out at 107.2 ± 11.5%. On to `C=CCNc1ncnc2ccc(Br)cc12` [SMER28], for which the “% 25 nM CA200645 binding” value is on record as 86.4 ± 8.7%. As for `CN1CCC[C@@H]1Cc1c[nH]c2ccc(CCS(=O)(=O)c3ccccc3)cc12` [Eletriptan hydrobromide], the “% 25 nM CA200645 binding” value turned out to be 96.9 ± 5.3%.

On to `Oc1ccc(-c2nc(-c3ccncc3)c(-c3ccc(F)cc3)[nH]2)cc1` [SB 202190], for which the “% 25 nM CA200645 binding” value is on record as 68.5 ± 12.1%. Take `CN(C)CCOC(=O)COc1ccc(Cl)cc1` [Centrophenoxine hydrochloride]: the “% 25 nM CA200645 binding” value is reported as 90.4 ± 28.8%.

In the case of `NC(=O)NO` [Hydroxyurea], the “% 25 nM CA200645 binding” value was 107.6 ± 23.3%.

For `CC(C)[N+](C)(CCOC(=O)C1c2ccccc2Oc2ccccc21)C(C)C` [Propantheline bromide], the “% 25 nM CA200645 binding” value is reported as 95.5 ± 4.8%. In the case of `Cc1scc2c1N(C(=O)CN1CCN(C)CC1)c1ccccc1NC2=O` [Telenzepine dihydrochloride], the “% 25 nM CA200645 binding” value was determined as 107.0 ± 15.2%. On the same count and under the same terms, in the case of `N[C@@H](CS(=O)O)C(=O)O` [L-Cysteinesulfinic Acid] it was 83.6 ± 21.3%; in that of `COc1ccc2c(c1)c(CC(=O)O)c(C)n2Cc1ccc(Cl)cc1`, 97.1 ± 10.6%; in that of `Br.CCCN(CCC)[C@@H]1CCc2cccc(O)c2C1` [R-(+)-8-Hydroxy-DPAT hydrobromide], 83.0 ± 17.5%. Take `N=C(N)NCCC[C@H](N)C(=O)O` [L-Arginine]: the “% 25 nM CA200645 binding” value was 97.1 ± 5.5%. Same read-out and setting: the same measure for `CN(C)C(=O)Oc1ccc[n+](C)c1` [Pyridostigmine bromide]: 92.0 ± 6.7%; for `O=C(c1ccc(F)cc1)C1CCN(CCn2c(=O)[nH]c3ccccc3c2=O)CC1` [Ketanserin tartrate]: 100.1 ± 15.2%. In the case of `CCCn1c(=O)c2c(ncn2C)n(CCC)c1=O` [1,3-Dipropyl-7-methylxanthine], the “% 25 nM CA200645 binding” value is 102.9 ± 21.6%. For `CCCC(CCC)C(=O)O` [Valproic acid sodium], the “% 25 nM CA200645 binding” value was found to be 99.8 ± 9.6%.

Consider `COc1cc2nc(N(C)CCCNC(=O)C3CCCO3)nc(N)c2cc1OC` (centres unmarked) [Alfuzosin hydrochloride], for which the “% 25 nM CA200645 binding” value came to 102.3 ± 4.9%. Still for that read-out and setting: in the case of `Nc1ccc(CCNc2ncnc3c2ncn3[C@@H]2O[C@H](CO)[C@@H](O)[C@H]2O)cc1` [N6-2-(4-Aminophenyl)ethyladenosine] it was 41.0 ± 7.1%; in that of `COc1ccc(OC)c(C(O)C(C)N)c1` (centres unmarked) [Methoxamine hydrochloride], 132.3 ± 57.0%; in that of `Cc1cc2c(cc1Cl)N(C(=O)Nc1cccc3ncccc13)CC2` [SB-215505], 98.1 ± 14.8%.

Regarding `Cc1cc(C(C)(C)C)cc(C)c1CC1=NCCN1` [Xylometazoline hydrochloride], the “% 25 nM CA200645 binding” value is 106.7 ± 10.4%. Same read-out and setting: in the case of `CN(N=O)c1ccc(O)c(O)c1` [Me-3,4-dephostatin] it was 87.0 ± 11.0%. On to `O=C(CCCN1CC=C(n2c(=O)[nH]c3ccccc32)CC1)c1ccc(F)cc1` [Droperidol], for which the “% 25 nM CA200645 binding” value was found to be 101.2 ± 18.5%. `c1ccc2c(CC3=NCCN3)cccc2c1` [Naphazoline hydrochloride]: the “% 25 nM CA200645 binding” value turned out to be 105.3 ± 13.5%. For `NC(C(=O)O)C(O)C(=O)O` (racemic) [DL-threo-beta-hydroxyaspartic acid], the “% 25 nM CA200645 binding” value stood at 97.0 ± 9.5%. On the same count and under the same terms, the same measure for `CC(C)N(CCC(C(N)=O)(c1ccccc1)c1ccccn1)C(C)C` (centres unmarked) [Disopyramide]: 78.9 ± 27.0%; for `C[C@H]1O[C@@H](n2cc(F)c(=O)[nH]c2=O)[C@H](O)[C@@H]1O` [5-fluoro-5'-deoxyuridine]: 95.4 ± 4.3%; for `CC[N+](CC)(CC)CC` [Tetraethylammonium chloride]: 94.7 ± 8.6%.

Take `NS(=O)(=O)c1cc2c(cc1Cl)N=CNS2(=O)=O` [Chlorothiazide]: the “% 25 nM CA200645 binding” value is 107.7 ± 8.4%. On the same count and under the same terms, the same measure for `CSc1nc(N)c2ncn([C@@H]3O[C@H](COP(=O)([O-])OP(=O)([O-])OP(=O)([O-])[O-])[C@@H](O)[C@H]3O)c2n1.[Na+].[Na+].[Na+].[Na+]`: 99.0 ± 0.7%; for `CCn1cc(C(=O)O)c(=O)c2cc(F)c(N3CCNC(C)C3)c(F)c21` (centres unmarked) [Lomefloxacin hydrochloride]: 96.9 ± 10.1%; for `NCCCCN=C(N)N` [Agmatine sulfate]: 97.6 ± 11.6%. For `CCC1(c2ccc(N)cc2)CCC(=O)NC1=O` (racemic) [(±)-p-Aminoglutethimide], the “% 25 nM CA200645 binding” value is recorded as 94.1 ± 8.7%. On the same count and under the same terms, the same measure for `Fc1cccc(/C=N/N=C/c2cccc(F)c2)c1` [DFB]: 94.8 ± 1.4%. `CCC1(C2=NCCN2)Cc2ccccc2O1` (centres unmarked) [Efaroxan hydrochloride]: the “% 25 nM CA200645 binding” value under setting [1] came to 95.2 ± 6.3%. For `NCC1(CC(=O)O)CCCCC1` [Gabapentin], the “% 25 nM CA200645 binding” value came out at 80.7 ± 22.8%. On the same count and under the same terms, the same measure for `Nc1ncnc2c1ncn2[C@@H]1O[C@H](COP(=O)(O)CP(=O)(O)OP(=O)([O-])[O-])[C@H](O)C1O.[Li+].[Li+]` (some centres unmarked): 102.3 ± 5.3%. Regarding `CN1[C@@H]2CC[C@H]1C[C@@H](OC(=O)c1cc(Cl)cc(Cl)c1)C2` [3-Tropanyl-3,5-dichlorobenzoate], the “% 25 nM CA200645 binding” value (% of control wells (1% DMSO and 25 nM CA200645), compounds at 10 µM, whole live cells expressing A3AR, mean ± SD, three experiments in duplicate) stood at 96.9 ± 4.1%.
